Assay results published in patent US20060293309A1, “Method of treating disorders and conditions using peripherally-restricted antagonists and inhibitors” (Dynogen Pharmaceuticals, Inc., priority 2005, published 2006).

Assays:
[1] = test system: cisplatin-induced emesis; assay: cisplatin-induced retching and vomiting in the ferret; format: in vivo, ferret (Mustela putario furo); settings: 5 mg/kg and 10 mg/kg i.p., 6 h observation
Experimental: The suitability of a compound of the invention to reduce retching and vomiting therapeutically is assessed in an accepted animal model of cytotoxin-induced emesis. Specifically, the experiments described herein are used to investigate the effect of a compound to reduce cisplatin-induced retching and/or vomiting in the ferret. Ondansetron is used as a positive control in the model, in view of its known antiemetic activity (Rudd and Naylor, Eur. J. Pharmacol., 322: 79-82 (1997)).
Adult male ferrets (Mustela putario furo) weighing 1200-1880g are purchased from Triple F Farns (Sayre, Pa.) and housed in individual cages at standardized conditions (12:12 h light/dark cycle and 21-23° C.). […]
Experiments are performed essentially as follows. […] Following administration of the cisplatin and either the test compound, ondansetron (control) or vehicle alone, the occurrence of retching and vomiting is monitored for a period of 6 hours. […] The latency of the retching or vomiting response and the number of episodes are recorded for each animal and are summarized for each experimental group (Wright et al., Infect. Immun., 68(4): 2386-9 (2000)). […]
Cisplatin is expected to induce an emetic response in 100% of the animals receiving vehicle alone. […] The mean latency of the first response post-cicplatin administration is also determined.

[2] = target: T1, serotonin transporter (SERT), human platelet membranes (Homo sapiens, UniProt P31645); assay: serotonin transporter (SERT) binding assay ([3H]N-methyl citalopram)
T1 construct: Briefly, human recombinant receptors were from human platelet membranes; from tissue; host or cells: human platelet membranes
T1 sequence (P31645 whole entry): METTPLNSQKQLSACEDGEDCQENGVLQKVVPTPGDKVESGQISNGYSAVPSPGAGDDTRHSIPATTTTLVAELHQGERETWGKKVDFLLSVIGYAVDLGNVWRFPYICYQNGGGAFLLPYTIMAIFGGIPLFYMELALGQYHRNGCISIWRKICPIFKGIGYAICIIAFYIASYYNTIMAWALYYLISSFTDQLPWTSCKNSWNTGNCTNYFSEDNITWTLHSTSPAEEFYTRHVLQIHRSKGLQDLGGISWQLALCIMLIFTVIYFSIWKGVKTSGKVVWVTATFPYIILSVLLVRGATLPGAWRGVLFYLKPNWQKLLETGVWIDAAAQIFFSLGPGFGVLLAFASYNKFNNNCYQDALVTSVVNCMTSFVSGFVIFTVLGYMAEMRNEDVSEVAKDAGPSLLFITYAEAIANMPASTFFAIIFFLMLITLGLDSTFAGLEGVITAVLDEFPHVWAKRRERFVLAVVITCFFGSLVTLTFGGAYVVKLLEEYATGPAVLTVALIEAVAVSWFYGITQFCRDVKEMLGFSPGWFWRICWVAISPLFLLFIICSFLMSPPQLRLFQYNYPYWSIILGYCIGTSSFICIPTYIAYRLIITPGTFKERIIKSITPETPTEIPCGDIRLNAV
Experimental: Binding assays were performed essentially according to procedures as follows.
The serotonin transporter (SERT) assay was performed essentially as described in D'Armato et al. (1987) J. Pharmacol. & Exp. Ther. 242:364-371 (with modification); and Brown et al. (1986) Eur. J. Pharmacol. 123:161-165. Briefly, human recombinant receptors were from human platelet membranes. Tritiated radioligand (N-methyl citalopram) was used. % specific binding was determined as a function of log [compound]. Imipramine was used as nonspecific determinant, reference compound and positive control.

[3] = target: T2, 5-HT3 human recombinant receptors from HEK-293 cells (Homo sapiens, UniProt P46098); assay: 5-HT3 human recombinant binding assay ([3H]GR 65630)
T2 construct: expressed in transfected cells; host or cells: HEK-293
T2 sequence (P46098 24-478): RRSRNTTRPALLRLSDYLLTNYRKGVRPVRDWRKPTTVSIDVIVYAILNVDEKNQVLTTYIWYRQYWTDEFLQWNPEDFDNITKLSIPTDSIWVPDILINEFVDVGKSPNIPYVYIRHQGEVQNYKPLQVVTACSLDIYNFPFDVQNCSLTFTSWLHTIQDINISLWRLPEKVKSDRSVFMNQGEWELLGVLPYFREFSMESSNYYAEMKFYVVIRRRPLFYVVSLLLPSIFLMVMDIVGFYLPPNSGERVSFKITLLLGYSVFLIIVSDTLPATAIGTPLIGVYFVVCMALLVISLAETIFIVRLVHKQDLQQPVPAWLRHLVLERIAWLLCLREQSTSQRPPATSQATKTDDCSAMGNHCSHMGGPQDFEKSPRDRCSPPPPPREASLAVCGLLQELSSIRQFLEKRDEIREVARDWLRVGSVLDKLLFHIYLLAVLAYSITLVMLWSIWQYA
Experimental: (§1) The binding of MCI 225 QUAT to various receptors/transporters was compared to that of the non-quaternized parent compound, MCI-225. Binding assays were performed essentially according to procedures as follows.
The 5-HT3 human recombinant binding assay was performed essentially as described in Lummis et al. (1990) Eur. J. Pharmacol. 189:223-27; Hoyer et al. (1988) Mol. Pharmacol. 33:303; and Tyers et al. (1991) Therapie 46:431-435. Briefly, human recombinant receptors were from HEK-293 cells. Tritiated radioligand (GR 65630) was used. % specific binding was determined as a function of log [compound]. MDL 72222 (1 alpha H, 3 alpha, 5 alpha H-tropan-3-yl-3,5-dichlorobenzoate) was used as nonspecific determinant, reference compound and positive control.

[4] = target: T3, norepinephrine transporter (NET), human recombinant from CHO cells (Homo sapiens, UniProt P23975); assay: norepinephrine transporter (NET) binding assay ([3H]nisoxetine)
T3 construct: expressed in transfected cells; host or cells: CHO
T3 sequence (P23975 whole entry): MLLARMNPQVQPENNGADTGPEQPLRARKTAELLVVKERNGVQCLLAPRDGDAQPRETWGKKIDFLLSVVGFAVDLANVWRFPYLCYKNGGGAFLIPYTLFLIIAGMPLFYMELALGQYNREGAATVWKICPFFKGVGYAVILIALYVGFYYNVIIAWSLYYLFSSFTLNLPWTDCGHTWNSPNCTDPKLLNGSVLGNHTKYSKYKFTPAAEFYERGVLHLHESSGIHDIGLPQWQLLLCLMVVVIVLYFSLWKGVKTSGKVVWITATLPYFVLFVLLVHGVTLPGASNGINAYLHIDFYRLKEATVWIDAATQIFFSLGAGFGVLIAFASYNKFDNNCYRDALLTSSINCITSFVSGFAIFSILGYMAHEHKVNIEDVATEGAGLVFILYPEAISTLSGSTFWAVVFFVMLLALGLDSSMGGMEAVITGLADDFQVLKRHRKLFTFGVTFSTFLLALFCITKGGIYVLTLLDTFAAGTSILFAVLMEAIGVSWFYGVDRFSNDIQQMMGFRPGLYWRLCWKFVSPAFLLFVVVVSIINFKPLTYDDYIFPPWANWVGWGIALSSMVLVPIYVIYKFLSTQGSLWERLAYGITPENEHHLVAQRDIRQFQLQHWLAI
Experimental: as §1
The norepinephrine transporter (NET) assay was performed essentially as described in Raisman et al. (1982) Eur. J. Pharmacol. 78:345-351 (minor modifications); and Raisman and Briley (1981) Eur. J. Pharmacol. 72:423. Briefly, human recombinant receptors were from CHO cells. Tritiated radioligand (nisoxetine) was used. % specific binding was determined as a function of log [compound]. Desipramine (DMI) was used as nonspecific determinant, reference compound and positive control.

SMILES	latency of the first emetic response induced by cisplatin [1]	number of emetic events induced by cisplatin [1]	SERT (h) % specific binding ([2]; Conc. 1.00E−06)	SERT (h) % specific binding ([2]; Conc. 1.00E−08)	SERT (h) % specific binding ([2]; Conc. 1.00E−10)	5-HT3 (hr) % specific binding ([3]; Conc. 1.00E−06)	5-HT3 (hr) % specific binding ([3]; Conc. 1.00E−08)	5-HT3 (hr) % specific binding ([3]; Conc. 1.00E−10)	NET (hr) % specific binding ([4]; Conc. 1.00E−06)	NET (hr) % specific binding ([4]; Conc. 1.00E−08)	NET (hr) % specific binding ([4]; Conc. 1.00E−10)
Cc1nccn1CC1CCc2c(c3ccccc3n2C)C1=O (centres unmarked) [Ondansetron, ondansetron]	increase the latency	reduce the number of emetic events	–	–	–	–	–	–	–	–	–
Cc1cc2c(-c3ccccc3F)nc(N3CCNCC3)nc2s1 [compound 225, 4-(2-fluoro-phenyl)-6-methyl-2-piperazin-1-yl-thieno[2,3-d]pyrimidine]	–	–	94%	10%	1%	100%	22%	0%	104%	72%	17%
